According to patent US9815791B2, “Alkylpyrazolyl guanidine F1F0-ATPase inhibitors and therapeutic uses thereof” (Lycera Corporation, priority 2013, dated 2017):
pEC50: −log10 of the molar value.

System: not listed separately
Test: Blood plasma levels after oral administration to mice
Type: in vivo
Conditions: mouse, 10 mg/kg, heading: AUC0-24, oral gavage, 5 mL/Kg of 2 mg/mL lipid emulsion
Description: (§1) Exemplary compounds were administered orally to animals (i.e., mice or rats), and then blood samples were taken from the animal at set time points and analyzed for the amount of test compound in the blood sample. Experimental procedures and results are described below.
(§2) A lipid emulsion containing the test compound was prepared by first dissolving the test compound in 1:4 Labrafil M1944:Solutol, then adding 0.5% carboxymethylcellulose in water with vigorous stirring to achieve a final ratio of 5:20:75 Labrafil:Solutol:0.5% aqueous CMC. The concentration of test compound in the lipid emulsion was 2 mg/mL.
(§3) Animals (mice or rats) were dosed by oral gavage using 5 mL/Kg of dosing solution. Animals were serially bled from the dorsal metatarsal vein (mice) or jugular vein (rats) at 30 minutes, 1 h, 2 h, 4 h, 8 h and 24 h post-dose. Test compounds 1 and B-1 were administered to a mice. Test compounds A-1 and B-2 were administered to rats.
(§4) The desired serial concentrations of working solutions were achieved by diluting a stock solution of analyte with 60% acetonitrile in water solution. A 5 μL aliquot of working solutions at 10, 20, 50, 100, 500, 1000, 5000, and 10000 ng/mL were added to 50 μL of blank plasma to achieve calibration standards of 1-1000 ng/mL (1, 2, 5, 10, 50, 100, 500, 1000 ng/mL) in a total volume of 55 μL.
(§5) Four quality control samples at 3 ng/mL (low 1), 5 ng/mL (low 2), 50 ng/mL (medium), and 800 ng/mL (high) were prepared independently of those used for the calibration curves. These QC samples were prepared on the day of analysis in the same way as calibration standards.
(§6) 55 μL standards, 55 μL QC samples, and 55 μL unknown samples were added to 200 μL of acetonitrile for precipitating protein respectively. Then, the samples were vortexed for 30 seconds at 4 degree Celsius. After centrifugation at 4 degree Celsius (i.e., 15000 rpm for 5 min) a 20 μL aliquot of the supernatant was analyzed by LC/MS. Unknowns were compared to standards to obtain test compound concentrations for each sample.
`O=C(/N=C(/Nc1cc(F)cc(Cl)c1)Nc1cc(C(F)(F)F)[nH]n1)c1ccc(F)c(F)c1` [Compound B-1, reference compound] gave an AUC(0-t) of 4530 ng·h/mL.

Same assay, conditions: mouse, 10 mg/kg, oral gavage, 5 mL/Kg of 2 mg/mL lipid emulsion
Work on `Cc1c(N/C(=N\C(=O)c2ccc(F)c(F)c2)Nc2cc(F)cc(Cl)c2)n[nH]c1C(F)(F)F` [Compound 1, N-(((3-Chloro-5-fluorophenyl)amino)((4-methyl-5-(trifluoromethyl)-1H-pyrazol-3-yl)amino)methylene)-3,4-difluorobenzamide] yielded a Cmax of 1590 ng/mL.
`O=C(/N=C(/Nc1cc(F)cc(Cl)c1)Nc1cc(C(F)(F)F)[nH]n1)c1ccc(F)c(F)c1` [Compound B-1, reference compound] gave a Cmax of 609 ng/mL.

Same assay, conditions: mouse, 10 mg/kg, oral gavage, 5 mL/Kg of 2 mg/mL lipid emulsion, read-out: AUC0-24
Work on `Cc1c(N/C(=N\C(=O)c2ccc(F)c(F)c2)Nc2cc(F)cc(Cl)c2)n[nH]c1C(F)(F)F` [Compound 1, N-(((3-Chloro-5-fluorophenyl)amino)((4-methyl-5-(trifluoromethyl)-1H-pyrazol-3-yl)amino)methylene)-3,4-difluorobenzamide] yielded an AUC(0-t) of 8760 ng·h/mL.

System: not listed separately
Test: Blood plasma levels after oral administration to rats
Type: in vivo
Conditions: rat, 10 mg/kg, heading: AUC0-24, oral gavage, 5 mL/Kg of 2 mg/mL lipid emulsion
Description: as §1, §2, §3, §4, §5, §6
For `Cc1c(N/C(=N\C(=O)c2cccc(Cl)c2)Nc2cc(F)cc(Cl)c2)n[nH]c1C(F)(F)F` [Compound A-1], the AUC(0-t) was 10500 ng·h/mL.
With `O=C(/N=C(/Nc1cc(F)cc(Cl)c1)Nc1cc(C(F)(F)F)[nH]n1)c1cccc(Cl)c1` [Compound B-2, reference compound] the AUC(0-t) was 5480 ng·h/mL.

Same assay, conditions: rat, 10 mg/kg, oral gavage, 5 mL/Kg of 2 mg/mL lipid emulsion
In the case of `Cc1c(N/C(=N\C(=O)c2cccc(Cl)c2)Nc2cc(F)cc(Cl)c2)n[nH]c1C(F)(F)F` [Compound A-1], the Cmax was 1440 ng/mL.
For `O=C(/N=C(/Nc1cc(F)cc(Cl)c1)Nc1cc(C(F)(F)F)[nH]n1)c1cccc(Cl)c1` [Compound B-2, reference compound], the Cmax was 541 ng/mL.

System: Ramos cells
Test: Cytotoxicity in Ramos cells
Type: cell-based
Conditions: Homo sapiens, read-out: Ramos Cell EC50
Description: Exemplary compounds described in above Examples were tested for activity against F1F0-ATPase by measuring the ability of the compounds to inhibit ATP synthesis. In addition, the compounds were assessed for cytotoxicity in Ramos cells. Inhibition of F1F0-ATPase activity in synthesizing ATP and cytotoxicity in Ramos cells were measured according to the procedures described in K. M. Johnson et al. Chemistry & Biology 2005, 12, 485-496.
For `CCn1nc(C(F)(F)F)c(C)c1N/C(=N\C(=O)c1ccc(Cl)cc1)Nc1cc(F)cc(Cl)c1` [Compound A-24], the pEC50 was > 5.00.
In the case of `Cc1c(NC(=NC(=O)c2cccc(Cl)c2)Nc2cccc(Cl)c2)n[nH]c1C(F)(F)F` [Compound A-7], the pEC50 was > 5.00.
With `CCn1nc(C(F)(F)F)c(C)c1N/C(=N\C(=O)c1ccc(OC)cc1)Nc1cccc(C(F)(F)F)c1` [Compound A-15] the pEC50 was > 5.00.
For `Cc1c(NC(=NC(=O)c2ccc(C(F)(F)F)cc2)Nc2cccc(Cl)c2)n[nH]c1C(F)(F)F` [Compound A-42], the pEC50 was > 5.00.
For `CCn1nc(C(F)(F)F)c(C)c1N/C(=N\C(=O)c1ccc(Cl)c(F)c1)Nc1cccc(Cl)c1` [Compound A-29], the pEC50 was > 5.00.
With `CCn1nc(C(F)(F)F)c(C)c1N/C(=N\C(=O)c1ccc(Cl)cc1Cl)Nc1cccc(C(F)(F)F)c1` [Compound A-13] the pEC50 was > 5.00.
For `Cc1c(C(F)(F)F)n[nH]c1NC(=NC(=O)c1ccc(Cl)cc1Cl)Nc1cc(F)cc(Cl)c1` [Compound A-11], the pEC50 was > 5.00.
For `Cc1c(NC(=NC(=O)c2ccc(Cl)cc2Cl)Nc2cccc(Cl)c2)n[nH]c1C(F)(F)F` [Compound A-9], the pEC50 was > 5.00.
For `Cc1c(N/C(=N\C(=O)c2ccc(F)c(F)c2)Nc2cc(F)cc(Cl)c2)n[nH]c1C(F)(F)F` [Compound 1, N-(((3-Chloro-5-fluorophenyl)amino)((4-methyl-5-(trifluoromethyl)-1H-pyrazol-3-yl)amino)methylene)-3,4-difluorobenzamide], the pEC50 was > 5.00.
For `CCn1nc(C(F)(F)F)c(C)c1N/C(=N\C(=O)c1ccc(Cl)cc1)Nc1cccc(C(F)(F)F)c1` [Compound A-25], the pEC50 was > 5.00.
In the case of `CCn1nc(C(F)(F)F)c(C)c1N/C(=N\C(=O)c1cccc(Cl)c1)Nc1cccc(Cl)c1` [Compound A-19], the pEC50 was > 5.00.
For `CCn1nc(C(F)(F)F)c(C)c1N/C(=N\C(=O)c1ccc(Cl)cc1)Nc1cccc(Cl)c1` [Compound A-26], the pEC50 was > 5.00.
In the case of `CCn1nc(C(F)(F)F)c(C)c1N/C(=N\C(=O)c1ccc(OC)cc1)Nc1cc(F)cc(Cl)c1` [Compound A-14], the pEC50 was > 5.00.
In the case of `CCn1nc(C(F)(F)F)c(C)c1N/C(=N\C(=O)c1ccc(OC)cc1)Nc1cccc(Cl)c1` [Compound A-16], the pEC50 was > 5.00.
With `CCn1nc(C(F)(F)F)c(C)c1N/C(=N\C(=O)c1ccc(F)c(F)c1)Nc1cccc(Cl)c1` [Compound A-22] the pEC50 was > 5.00.
For `Cc1c(C(F)(F)F)n[nH]c1NC(=NC(=O)c1ccc(F)c(F)c1)Nc1ccc(Cl)cc1Cl` [Compound A-30], the pEC50 was > 5.00.
For `CCn1nc(C(F)(F)F)c(C)c1N/C(=N\C(=O)c1cccc(Cl)c1)Nc1cccc(C(F)(F)F)c1` [Compound A-18], the pEC50 was > 5.00.
With `CCn1nc(C(F)(F)F)c(C)c1N/C(=N\C(=O)c1ccc(Cl)c(F)c1)Nc1cc(F)cc(Cl)c1` [Compound A-27] the pEC50 was > 5.00.
With `Cc1ccc(N/C(=N/C(=O)c2ccc(F)c(F)c2)Nc2[nH]nc(C(F)(F)F)c2C)c(Cl)c1` [Compound A-31] the pEC50 was > 5.00.
In the case of `Cc1c(NC(=NC(=O)c2ccc(Cl)cc2)Nc2cccc(Cl)c2)n[nH]c1C(F)(F)F` [Compound A-38], the pEC50 was > 5.00.
With `Cc1c(NC(=NC(=O)c2ccc(Cl)cc2)Nc2cccc(C(F)(F)F)c2)n[nH]c1C(F)(F)F` [Compound A-37] the pEC50 was > 5.00.
For `Cc1c(NC(=NC(=O)c2ccc(Cl)cc2Cl)Nc2ccc(Cl)cc2Cl)n[nH]c1C(F)(F)F` [Compound A-32], the pEC50 was > 5.00.
With `CCn1nc(C(F)(F)F)c(C)c1N/C(=N\C(=O)c1ccc(Cl)c(F)c1)Nc1cccc(C(F)(F)F)c1` [Compound A-28] the pEC50 was > 5.00.
For `Cc1c(NC(=NC(=O)c2ccc(Cl)c(F)c2)Nc2cccc(Cl)c2)n[nH]c1C(F)(F)F` [Compound A-41], the pEC50 was > 5.00.
With `Cc1c(NC(=NC(=O)c2ccc(Cl)cc2Cl)Nc2cccc(C(F)(F)F)c2)n[nH]c1C(F)(F)F` [Compound A-8] the pEC50 was > 5.00.
In the case of `Cc1c(N/C(=N\C(=O)c2cccc(Cl)c2)Nc2cc(F)cc(Cl)c2)n[nH]c1C(F)(F)F` [Compound A-1], the pEC50 was > 5.00.
For `CCn1nc(C(F)(F)F)c(C)c1N/C(=N\C(=O)c1ccc(Cl)cc1Cl)Nc1cc(F)cc(Cl)c1` [Compound A-12], the pEC50 was > 5.00.
In the case of `CCn1nc(C(F)(F)F)c(C)c1N/C(=N\C(=O)c1cccc(Cl)c1)Nc1cc(F)cc(Cl)c1` [Compound A-17], the pEC50 was > 5.00.
With `Cc1ccc(NC(=NC(=O)c2ccc(Cl)cc2Cl)Nc2n[nH]c(C(F)(F)F)c2C)c(Cl)c1` [Compound A-33] the pEC50 was > 5.00.
With `COc1ccc(C(=O)N=C(Nc2cc(F)cc(Cl)c2)Nc2n[nH]c(C(F)(F)F)c2C)cc1` [Compound A-2] the pEC50 was > 5.00.
For `CCn1nc(C(F)(F)F)c(C)c1N/C(=N\C(=O)c1ccc(F)c(F)c1)Nc1cccc(C(F)(F)F)c1` [Compound A-21], the pEC50 was > 5.00.
With `Cc1ccc(NC(=NC(=O)c2cccc(Cl)c2)Nc2n[nH]c(C(F)(F)F)c2C)c(Cl)c1` [Compound A-35] the pEC50 was > 5.00.
For `Cc1c(NC(=NC(=O)c2ccc(Cl)cc2)Nc2cc(F)cc(Cl)c2)n[nH]c1C(F)(F)F` [Compound A-36], the pEC50 was > 5.00.
For `CCn1nc(C(F)(F)F)c(C)c1N/C(=N\C(=O)c1ccc(F)c(F)c1)Nc1cc(F)cc(Cl)c1` [Compound A-20], the pEC50 was > 5.00.
With `CCn1nc(C(F)(F)F)c(C)c1N/C(=N\C(=O)c1ccc(Cl)cc1Cl)Nc1cccc(Cl)c1` [Compound A-23] the pEC50 was > 5.00.
In the case of `Cc1c(NC(=NC(=O)c2ccc(Cl)c(F)c2)Nc2cc(F)cc(Cl)c2)n[nH]c1C(F)(F)F` [Compound A-39], the pEC50 was > 5.00.
In the case of `COc1ccc(C(=O)N=C(Nc2cccc(Cl)c2)Nc2n[nH]c(C(F)(F)F)c2C)cc1` [Compound A-10], the pEC50 was > 5.00.
